The values that follow come from patent US20240043818A1, “Engineered Cells for Increased Collagen Production” (Northeastern University, priority 2020, published 2024).

In one series the test system is human dermal fibroblasts. The note with it: cited from earlier work.
The next series deals with human chondrocytes. Particulars: cited from earlier work.
The subject of a further series is corneal fibroblasts. Briefly: Media additive screening (Phase 1) and full factorial DOE (Phase 2), collagen production by SirCol. Type of series: cell-based. The note with it: Phase 1 screening.
The test system of series [1] is cell types including bovine, mouse, and human. The note with it: cited from earlier work.
The subject of series [2] is baboon liver myofibroblasts. Particulars: cited from earlier work.
For another series, the system named is rat liver M cells. Particulars: concentration in media as low as 1 ng/ml; cited from earlier work.
A further series concerns human lung fibroblasts. Particulars: 100 ng/mL; cited from earlier work.
Series [3] relates to myofibroblasts and fibroblasts. Particulars: 50 mM; cited from earlier work.
For the next series, the system named is fibroblast migration. The note with it: dose-dependent, 0.25 and 0.5 mM; cited from earlier work.
Another series deals with any cell type. The note with it: cited from earlier work.
Another series concerns collagen production. The note with it: cited from earlier work.
Setting [4] is: added to the culture media in concentrations up to 300 μM.

Experimental for corneal fibroblasts: Based on a weighted scoring (Table 13), the seven best additives were selected and were added to the fibroblast media separately in a Phase 1 screening study using concentrations presented in Table 14. […] For this study a three-level design was chosen in order to determine a maxima. This phase of the experiment determined which additives have a statistically significant effect on collagen production and what concentration of each additive has the highest positive impact.
The seven additives also allowed for minimizing the number of plates and maximizing the number of used wells. […] In phase 1 of testing 7 media additives were tested at 3 concentrations with a sample size of 4 for each condition. Additives and concentrations used were determined by the prior research described above. Collagen amount per well was quantified, but cell counts were not performed. Collagen produced per cell was estimated based on the number of cells expected per well. Some groups fell below the SirCol standard curve range of 1-50 ug. These values were represented as 1.00 ug/100 uL and were assigned the lowest rating for efficacy in the resulting trade study.
For the three additives that advanced the highest ranking of each additive was used as the DOE centerpoint. Due to a lack of available stock, ACE low was substituted for ACE medium.
In phase 2 the top performing media additives were fed into a full factorial DOE. The concentrations used were determined by a variety of factors including a trade study, remaining laboratory supplies, and finally the lower cost associated with a lower concentration in a near-tie situation. A near-tie situation was defined by the group as concentrations of the same chemical that scored within 1% total score. […] For acetaldehyde, due to a stock issue the low concentration at 0.2 mM was chosen. For the 100% concentration limit needed to complete construction of the full-factorial DOE plan, each of these values was doubled, which corresponds to the medium conditions from phase 1.

Take `N[C@@H](CCC(=O)O)C(=O)O` [Glutamate]: in the series on human dermal fibroblasts (glutamate-supplemented media), the “increase of collagen production from the control” value was 400%.

For the molecule `NC(=O)CC[C@H](N)C(=O)O` [glutamine], in the series on human dermal fibroblasts (at 250 μM), the “maximum benefit for the production of collagen, % of the control” value is around 300%.

As for “IL-1p: Interleukin type 1p as printed, glycoprotein associated with immune response”, the “lowest concentration needed for an observable, positive effect on collagen production” value in the series with human chondrocytes is 2.5 µM.

`O=C1O[C@H]([C@@H](O)CO)C(O)=C1O` [ASC, Ascorbic acid]: the “collagen production versus control, single additive” value with corneal fibroblasts is listed as “higher collagen production than the control”. In addition, in series [1], the production of collagen entry was “beneficial”.

On to TGF-β, for which the “concentration for maximum efficacy” value in the series on human dermal fibroblasts is 12.5 ng/mL.

For `CC=O` [ACE, Acetaldehyde], in the series with corneal fibroblasts, the “collagen production versus control, single additive” value is given as “higher collagen production than the control”. The “levels of collagen produced” value (in series [2] (setting [4]); in the series on human dermal fibroblasts (setting [4])) was “increase the levels of collagen” in each case.

Consider `O=C(O)[C@@H]1CCCN1` [Proline], for which the “maximum increase in collagen production compared to the control value” in the series with human dermal fibroblasts (5-10 mM in media) is given as 200%.

For the molecule “TGF-β1: Transforming Growth Factor Beta 1”, in the series with rat liver M cells, the “collagen production versus control” value is recorded as “unquantified increase”.

`O=C(O)C1CCC=N1` (stereo not shown) [pyrroline-5-carboxylate]: in the series with human dermal fibroblasts, the “optimal concentration for collagen production” value is 1 mM and the “time at which the effect on collagen production can be seen” value is 6 h. Further, the “maximum increase of collagen production, % of the control value” with human dermal fibroblasts (optimal concentration of 1 mM) is 260%.

On to IGF-1: Insulin-like Growth Factor 1, for which the “correlation between level in media and production of collagen” value with human dermal fibroblasts (manipulation of rat serum applied to media) is reported as “positive correlation”. Moreover, in the series with human lung fibroblasts, the “maximum increase of collagen production from control” value is given as 300%.

On to `CCO` [ethanol], for which the “effect on the level of collagen production” value in [3] is given as “no direct effect”.

In the case of `CC(O)C(=O)O` (stereo not shown) [Lactate], the figures for the collagen production entry (in series [2] (5 mM added to media); in the series with human dermal fibroblasts (40 mM)) were “statistically significant increase” and “decrease collagen production”, respectively.

Regarding `N#CCCN` [BAPN, β-aminopropionitrile], in the series on corneal fibroblasts, the “collagen production versus control, single additive” value is recorded as “higher collagen production than the control”. For the same molecule, the fibroblast migration result with fibroblast migration is “inhibited fibroblast migration”. The “adverse effects on cell viability, collagen synthesis, or non collagen protein synthesis” value in the series on any cell type is on record as “No research with any cell type has shown adverse effects”.

On to `Cn1c(=O)c2c(ncn2C)n(C)c1=O` [caffeine], for which, in the series on collagen production (concentrations in media as little as 1-5 mM), the “effect on collagen production” value is on record as “negative effect”.

B1: IL-10: Interleukin, glycoprotein associated with immune response (protein, UniProt P22301 19-178, looked up)
Interleukin-10: SPGQGTQSENSCTHFPGNLPNMLRDLRDAFSRVKTFFQMKDQLDNLLLKESLLEDFKGYLGCQALSEMIQFYLEEVMPQAENQDPDIKAHVNSLGENLKTLRLRLRRCHRFLPCENKSKAVEQVKNAFNKLQEKGIYKAMSEFDIFINYIEAYMTMKIRN
B1: the “effect on level of collagen production” value in the series with collagen production is on record as “reduce the level of collagen production”.

B2: IL-4: Interleukin, glycoprotein associated with immune response (protein, UniProt P05112 25-153, looked up)
Interleukin-4: HKCDITLQEIIKTLNSLTEQKTLCTELTVTDIFAASKNTTEKETFCRAATVLRQFYSHHEKDTRCLGATAQQFHRHKQLIRFLKRLDRNLWGLAGLNSCPVKEANQSTLENFLERLKTIMREKYSKCSS
For the molecule B2, the “maximum positive effect on collagen production, increase from control” value in the series with collagen production is 250%.
